Assay results published in patent US8603976B2, “Methods of enhancing functioning of the large intestine” (1149336 Ontario, Inc., priority 1997, dated 2013).

Experiments:
Assay type in all cases: in vivo
[1] = test system: mice; assay: Mortality in mice exposed to 10% colitis-inducing dextran sulfate (Example 3); settings: 10% dextran sulfate in drinking water, 2.5 μg per injection s.c. twice per day, after 9 days; saline group 3 of 10
Method: Mice were also treated with 2 subcutaneous injections per day (0.5 ml) of either saline, or [GLY^2]hGLP-2, 2.5 μg per injection. After 9 days, the experiment was stopped.

[2] = test system: Female CD1 mice; assay: 5% dextran sulfate induced ulcerative colitis model in mice (Example 2)
Description: This experiment was designed to test the activity of GLP-2 in ameliorating disease symptoms in an animal model of colitis. A 5% dextran sulfate solution was used to induce ulcerative colitis in test mice (Okayasu et al., 1990, 98:694-702).
Forty female CD1 mice (six-weeks old and approximately 25 g, obtained from Charles River) were used in the experiment. On day 1, the mice were weighed using a Mettler PJ300 scale and randomly allocated to 1 of eight treatment groups. The groups, each consisting of 5 mice housed together, were treated as follows:
These two groups were fed normal drinking water.
Group 1) Ten days of injections (PBS), day 7 to day 17, animals sacrificed day 17.
Group 2) Ten days of injections human (Gly 2) GLP-2 (2.5 μg bid), day 7 to day 17, animals sacrificed day 17.
Groups 3 and 4—Test Group
Drinking water given to these groups contained 5% Dextran sulfate (DS).
Group 3) DS given from day 7 to day 17, PBS injections given from day 7 to day 17, animals sacrificed day 17.
Group 4) DS given from day 7 to day 17, human[Gly^2] GLP-2 (2.5 μg bid) injections given day 7 to day 17, animals sacrificed day 17.
Groups 5 and 6—Test Group
Drinking water contained 5% Dextran sulfate day 2 to day 9, followed by 4 days of normal drinking water. Ten days of injections were started day 4. […]
Dextran sulfate (USB, Cleveland, Ohio, MW 40,000-50,000) was dissolved into double distilled water, and placed into the water bottles. Water bottles were topped up daily. GLP-2 peptide was reconstituted and aliquoted on the day prior to the first day of injection and kept in a −20 C. freezer. Human [Gly^2]GLP-2 (5 mg/mL) was reconstituted in PBS. One microliter of 5N NaOH was required to dissolve the peptide in a volume of 1 ml. The injection volume of 0.5 ml was constant throughout the experiment using ½ cc U-100 Insulin Syringes Becton Dickinson and Company, NJ). Control mice (cage 1) received the same volume (0.5 ml) of phosphate buffered saline (PBS—137 mM NaCl, 2.7 mM KCl, 4.3 mM Na2HPO4.7H2O, 1.4 mM KH2PO4, pH 7.3).
Subcutaneous injections in the right hind quarter began on various days depending on the treatment conditions given above. All injections were twice a day, at 8 am and 6 pm. Mice in cages 1 and 2 were fasted on the day prior to sacrifice. Body weight measurements were made on day 1, day 7, day 12 and the day of sacrifice. The weight and length of the large intestine of each animal was measured after sacrifice.

[3] = test system: Female CD1 mice; assay: Effect of GLP-2 on small and large intestinal mass and protein content in mice (Example 1); settings: 2.5 μg twice daily subcutaneously for 10 days
Method: In this experiment, the effect of GLP-2 on both small and large intestinal mass, as well as the relative contribution of water to the increment in intestine weight, was examined.
Female CD1 mice (6 weeks old) were treated with rat GLP-2, 2.5 μg twice daily (subcutaneously) for 10 days. Following treatment, mice were fasted 24 hours, anesthetized with CO2 and sacrificed. The small and large intestine was removed from the peritoneal cavity (from pylorus to cecum), cleaned, weighed and measured. For comparative purposes, 2 cm segments of proximal jejunum, ileum and colon were obtained from each animal from the identical anatomical positions (as measured from the pylorus and cecum) and analyzed for protein content, wet weight and dry weight (expressed as mean±S.E.M in mg/2 cm segment).
For protein content, two 2 cm segments from the proximal jejunum, ileum and colon were removed, placed in 13 ml tubes containing 2 ml of PBS, homogenized for 20 seconds in a Brinkmann Homogenizer and placed on ice. The tubes were centrifuged for 5 min. at 1000 g and 100 μl aliquots of supernatant homogenate removed for determination of protein content using the modified Bradford method.
To measure wet and dry weight, 2 cm intestinal segments were weighed, placed in culture tubes, reweighed, then freeze-dried overnight in a Fast-Freeze flask (Labconco) and reweighed.

[4] = 5% DS day 7 to day 17, 2.5 μg bid s.c. day 7 to day 17, group 4 vs group 3 (PBS)
[5] = normal drinking water, 2.5 μg bid s.c. for ten days, group 2 vs group 1 (PBS)
[6] = 2 cm segment, vs PBS-treated mice, p<0.05

| Substance | survival [1] | body weight through the course of the experiment [2, 4] | large intestine weight at sacrifice [2, 4] | large intestine length during experimentally induced colitis ([2]; 5% DS day 7 to day 17, 2.5 μg bid s.c., group 4 vs group 3 (PBS)) | morbidity, dehydration and reduction in mass of the large intestine caused by induced colitis ([2]; agonist given at the same time as 5% DS, day 7 to day 17, group 4 vs group 3) | large intestine length [2, 5] | post-treatment large intestinal mass [2, 5] | dry weight of intestinal segments from the proximal jejunum [3, 6] | wet weight of intestinal segments from the proximal jejunum [3, 6] | weights of the segments obtained from the colon ([3]; 2 cm segment, wet and dry weight) | protein content in the colon ([3]; compared to PBS-treated mice) | protein content in the jejunum ([3]; compared to PBS-treated mice) |
| --- | --- | --- | --- | --- | --- | --- | --- | --- | --- | --- | --- | --- |
| [Gly^2]hGLP-2: human GLP-2 wherein the alanine at position 2 is replaced by a glycine; DPP-IV resistant analog (HGDGSFSDEMNTILDNLAARDFINWLIQTKITD; Glucagon-like peptide 2; UniProt P01275 146-178, looked up, variant A2G) | 7 of 10 | maintain body weight better | significantly heavier large intestines | also exhibited, although to a lesser degree | ameliorates the severe morbidity, dehydration, and reduction in mass of the large intestine | significant increase in large intestine length | causes an increase in large intestinal mass |  |  |  |  |  |
| rat GLP-2: rat GLP-2, 33 amino acid peptide having the sequence SEQ ID NO: 2; used in Example 1 (HADGSFSDEMNTILDNLATRDFINWLIQTKITD; listed as Rattus sp.) |  |  |  |  |  |  |  | significantly increased | significantly increased | slightly, but consistently, increased | statistically significant increase | statistically significant increase |
